Experimental findings from patent US10493026B2, “Process for making tablet using radiofrequency and lossy coated particles” (Johnson & Johnson Consumer Inc., priority 2017, dated 2019) are described below.

The data set can be described thus: Permittivity (Q, e′, e″) by impedance analyzer, capacitance method. Format: physicochemical. Conditions: 27 MHz. An excerpt:
The property of permittivity is the measure of the resistance to forming an electric field. For purposes of comparing materials in air, it is often convenient to describe the permittivity of material in air where the permittivity is more specifically called “relative permittivity” or €r. This is a complex number represented by the following equation: €r=e′−je″ where e′ (the real portion of the complex number) is the dielectric constant (energy storage) and e″ (the imaginary portion of the complex number) is the dielectric loss or dissipation factor (energy dissipated as heat). The ratio of dielectric loss (e″) over the dielectric constant (e′) is called the loss tangent (tan δ) or power factor. […] The Q value is affected by physical and chemical properties such as density (porosity/particle size), moisture (conductivity), temperature, and molecular polarizability. The measurements obtained by this method can eliminate the need to measure and evaluate these properties independently.
Permittivity values (Q, e′, e″) were measured using an Agilent Impedance Analyzer at 27Mhz using a capacitance method wherein a fixture with a bottom fixed plate and top adjustable plate with a torque limiter which lightly compresses a cylindrical sample container to remove any air. During testing, the container is over filled with material and then carefully leveled off to avoid void spaces. A lid is placed on top to temporarily seal material within the container. Once a measurement is made, custom software calculates the difference between the sample and the configuration empty.

Structures are written as SMILES. Where “and” joins values, the source holds several entries; their conditions need not be identical. Equal entries are not always repeated.

On to `OC[C@@H](O)[C@@H](O[C@H]1O[C@H](CO)[C@@H](O)[C@H](O)[C@H]1O)[C@H](O)[C@@H](O)CO` [Maltitol, NF (SweetPearl P300DC), Maltitol], for which, where the note is “Table 1A”, the “Loss Tangent” value is listed as 0.0035, the “e′” value was 1.703 and the “e″” value amounted to 0.006. Also, where the note is “Table 1B”, the “Loss Tangent” value amounted to 0.0022, the “e′” value was 1.6214 and the “e″” value stood at 0.0035.
Consider `OC[C@@H](O)[C@@H](O)[C@H](O)[C@@H](O)CO` [Sorbitol Powder, NF, Sorbitol], for which, for the setting “Table 1A”, the “Loss Tangent” value is 0.0358 and 0.0462 and 0.0361; the “e′” value was 1.960 and 2.097 and 1.803; the “e″” value is 0.0701 and 0.0969 and 0.0650.
Take `OC[C@@H](O)[C@@H](O)[C@H](O)[C@H](O)CO` [Mannitol NF (Pearlitol 200SD), Mannitol]: under “Table 1A”, the “Loss Tangent” value is given as 0.0028, the “e′” value is on record as 1.410 and the “e″” value was found to be 0.004.
